Assay results: patent US20230391842A1, “RETRO-INVERSO PEPTIDES” (Herantis Pharma OYJ, priority 2019, published 2023)
pKd: −log10 of the molar value. Each block holds one molecule with its values, some of them ahead of it. Positions of bridges follow the written chain, without caps; N, C: chain ends. Non-standard residues stand in square brackets, D forms with d. Residues, ends and D or L forms follow the SMILES beside them. No end group written: not given here.

Legend:
[1] = target: nucleotide-binding domain of GRP78 (GRP78-NBD); test: Binding to GRP78-NBD Kd (μM)
Source text: Table printed on a drawing sheet, FIG. 5B
Head of the field: Binding to GRP78-NBD Kd (μM)
GRP78-NBD is shown in a to translucent surface model along with its cartoon trace. The Cys-Cys bond in compound 14 (SEQ ID NO: 14) is shown in sticks.
The binding affinities are obtained by microscale thermophoresis-based cell free assay.
GSK2606414 was used to inhibit PERK signaling and KIRA6 to inhibit IRE1alpha signaling. * p<0.05, ** p<0.01, *** p<0.001, **** p<0.0001 one-way ANOVA test with post-hoc Fisher's LSD test for pairwise comparison vs MPP+ negative control. #p<0.05, ##p<0.01, ###p<0.001, ####p<0.0001 one-way ANOVA test with post-hoc Fisher's LSD test for pairwise comparison between effect of compound alone and its combination with UPR signal inhibitor.
Where the first naming reader finds the target: head: Binding to GRP78-NBD Kd (μM)

[2] = system: dopaminergic TH-positive neurons injured with MPP+; test: Neuroprotective effect on dopaminergic TH-positive neurons injured with MPP+ (primary mesencephalic culture); format: cell-based, rat; conditions: MPP+ 4 μM, 48 h; for potency of retro-inverso peptides relative to their parent compounds and to full-length CDNF protein: stated for 'most cases'
Experimental: Neuroprotective effects of compounds 1-20 (SEQ ID NO:s 1-20, parent and retro-inverso) were tested in an in vitro model in which primary cultures of rat embryonic mesencephalic neurons were stressed with MPP+, the active metabolite of neurotoxin 1-methyl-4-phenyl-1,2,3,6-tetrahydropyridine (MPTP). MPP+ kills dopaminergic (TH-positive) neurons via a variety of toxic mechanisms, including mitochondrial dysfunction, generation of peroxynitrite, oxidative stress, ER stress and induction of apoptosis.
Rat dopaminergic neurons were cultured as described by Visanji et al., 2008. Briefly, the midbrains obtained from 15-day-old rat embryos (Janvier, France) were dissected, and the ventral portion of the mesencephalic flexure, a region of the developing brain rich in dopaminergic neurons, was used for the cell preparations. The midbrain cells were dissociated by trypsinization for 20 min at 37° C. […] The reaction was stopped by adding Dulbecco's modified Eagle's medium (DMEM) containing DNAase I grade II (0.5 mg/mL) and 10% of fetal calf serum (FCS). Cells were then mechanically dissociated by 3 passages through a 10 ml pipette. Cells were then centrifuged at 180×g for 10 min at +4° C. on a layer of BSA (3.5%) in L15 medium. The cell pellets was re-suspended in a defined culture serum-free medium consisting of Neurobasal (Invitrogen) supplemented with B27 (2%), L-glutamine (2 mM) and 2% of PS solution and 10 ng/ml of Brain-derived neurotrophic factor (BDNF) and 1 ng/mL of Glial-Derived Neurotrophic Factor (GDNF). […] The cells were seeded at a density of 40 000 cells/well in 96 well-plates (pre-coated with poly-L-lysine) and maintained in a humidified incubator at 37° C. in 5% CO2/95% air atmosphere. Half of the medium was changed every 2 days with fresh medium. On 96-wells plates, only 60 wells are used. To avoid any edge effect, the first and last lines and columns were not be used for culture and were filled with sterile water.
On day 6 of culture, CDNF or the compounds 1-20 (SEQ ID NO:s 1-20, parent and retro-inverso), were dissolved in culture medium and then pre-incubated with mesencephalic neurons for 4 hours before the MPP+ application. Four hours after the preincubation of the compounds, MPP+ was added to a final concentration of 4 μM, diluted in control medium still in presence of compounds for 48 h.
48 hours after intoxication, the cells were fixed by a solution of 4% paraformaldehyde in PBS, pH 7.3 for 20 min at room temperature. The cells were washed twice in PBS, and then permeabilized and non-specific sites were blocked with a solution of PBS containing 0.1% of saponin and 1% FCS for 15 min at room temperature. Next, the cells were incubated with (a) a monoclonal antibody anti-Tyrosine Hydroxylase (TH) produced in mouse at dilution of 1:1 0000 and with (b) a polyclonal antibody anti-alpha-synuclein (aSyn) antibody produced in rabbit at dilution of 1:400 in PBS containing 1% FCS, 0.1% saponin, for 2 h at room temperature.
48 hours after intoxication, the cell culture supernatant was removed, and the cells fixed by a solution of 4% paraformaldehyde in PBS, pH 7.3 for 20 min at room temperature. The cells were washed twice in PBS, and then permeabilized and non-specific sites were blocked with a solution of PBS containing 0.1% of saponin and 1% FCS for 15 min at room temperature. Then, the cells were incubated with a) a monoclonal Anti-Tyrosine Hydroxylase (TH) antibody produced in mouse at dilution of 1:10000 in PBS containing 1% FCS, 0.1% saponin, for 2 hours at room temperature, and b) a polyclonal anti-postsynaptic density protein-95 (PSD-95) antibody produced in rabbit at dilution of 1:200 in PBS containing 1% FCS, 0.1% saponin, for 2 h at room temperature. This antibody stains specifically synapses.
For each condition, pictures representing the whole well area were automatically acquired using ImageXpress (Molecular device) at 10× (20 pictures, for TH and a-syn) or at 40× magnification (60 pictures, for TH and PSD-95). […]

rat hepatocytes = test: In vitro metabolic stability in rat hepatocytes; conditions: 1 μM, 37° C., 0-60 min
human hepatocytes = test: In vitro metabolic stability in human hepatocytes; conditions: 1 μM, 37° C., 0-60 min
[3] = system: 3D in vitro model of blood brain barrier; test: Permeation in a 3D in vitro model of blood-brain barrier; conditions: 500 nM, 2 h
[4] = In vivo pharmacokinetics after intravenous administration to rats; conditions: rat, 5 mg/kg intravenous bolus injection, male Sprague-Dawley rats, plasma; for clearance: read-out: CI
Experimental: Test compounds were intravenously (i.v.) administered to male Spraque-Dawley rats (about six weeks old, n=3 per compound) at 5 mg/kg. Blood samples were collected from jugular vein through implanted in-dwelling catheters (250 μl blood) into labelled polypropylene tubes containing anticoagulant (heparin) at 2 min, 5 min, 15 min, 30 min, 1 h, 2 h and 4 h after compound administration and held on wet ice for a maximum of 30 minutes. The blood samples were centrifuged for plasma separation (4° C., 21100 G, 5 min). Tolbutamide 500 ng/ml with 10% TFA in acetonitrile or in MeCN was used as an internal standard solution. The standard samples were prepared into rat plasma by spiking the matrix into concentrations 2-10 000 ng/ml of the analyte, respectively, and otherwise treated as the samples. To 50 μl aliquots of sample plasma was added 200 μl of internal standard. Samples were mixed (150 rpm, 15 min) and centrifugated (3000 rpm, 15 min). The analytical method was optimized for reaction monitoring chromatographic (peak shape & retention) shifts and mass spectrometric properties (ionization efficiency, MS/MS detection). Supernatants were is analyzed by UHPLC-TOF mass spectrometry using electrospray ionization. […]

[5] = In vitro metabolic stability in rat plasma; format: in vitro ADME; conditions: 1 μM, 37° C., up to 120 min
Experimental: Metabolic stability of the retro-inverso and native control peptides was studied using rat plasma over the time period of 120 min, with initial test concentration of 1 μM. Samples were analysed using LC/QE-orbitrap-MS. Calculated half-life is based on compound disappearance in rat plasma.
The incubation was terminated by acetonitrile. […] Stock solutions was prepared using 50% DMSO, and the compounds were spiked 1/100 to incubation to have final DMSO content of 0.5%. […] For analysis of compounds 13-14 and 19-20 stock solutions were prepared with PBS, and samples were analyzed by UHPLC-ToF mass spectrometry. Enalapril 1 μM was used as a disappearance rate control.

pKd [1]: 6.52
Molecule: EECRACAE (disulfide 3-6) [Compound 17]

pKd [1]: 6.17
Molecule: KEACARCEE ([dK][dE][dA][dC][dA][dR][dC][dE][dE]; disulfide 4-7) [Compound 14]

pKd [1]: 4.84
Molecule: ETCKGCAE (disulfide 3-6) [Compound 19]

stability in rat plasma as compared to parent compound [5]: significantly improved stability
AUC(0-inf) [4]: 7.5 µg·h/mL
MRT [4]: 19.2 min
Vd [4]: 0.21 L/kg
half-life [4]: 18.4 min
clearance [4]: 0.685 L/h/kg
stability in rat hepatocytes as compared to parent compound (rat hepatocytes): significantly improved stability
Molecule: C[C@@H](NC(=O)[C@@H](CCC(=O)O)NC(=O)[C@H](N)CCCCN)C(=O)N[C@@H]1CSSC[C@H](C(=O)N[C@H](CCC(=O)O)C(=O)N[C@H](CCC(=O)O)C(=O)O)NC(=O)[C@@H](CCCNC(=N)N)NC(=O)[C@@H](C)NC1=O [Compound 14, KEACARCEE] (H-[dK][dE][dA][dC][dA][dR][dC][dE][dE]-OH; disulfide 4-7; N-terminus and C-terminus assumed)

pKd [1]: 5.91
Molecule: EACARCEE ([dE][dA][dC][dA][dR][dC][dE][dE]; disulfide 3-6) [Compound 18] [listing 2 of 2 here]

pKd [1]: 5.21
Molecule: SKEACGGKCTEG ([dS][dK][dE][dA][dC]GG[dK][dC][dT][dE]G; disulfide 5-9) [Compound 12]

The remaining lines, values behind:

Molecule: GEECRACAEKT (disulfide 4-7) [Compound 5]
pKd [1]: 5.49

Molecule: KEACARCEEGWSHLIQKLEAVRM [Compound 2]
potency of retro-inverso peptides relative to their parent compounds and to full-length CDNF protein [2]: comparable

Molecule: CDNF: full-length cerebral dopamine neurotrophic factor protein (rhCDNF), unconventional neurotrophic factor
alpha-synuclein (aSyn) aggregates / inclusions in TH-positive neurons [2]: reducing accumulation
protection of TH-positive neurons, their neurites and synapses from MPP+ toxicity [2]: neuroprotective

Molecule: EACARCEE ([dE][dA][dC][dA][dR][dC][dE][dE]; disulfide 3-6) [Compound 18] [listing 1 of 2 here]
potency of retro-inverso peptides relative to their parent compounds and to full-length CDNF protein [2]: comparable

Molecule: KEACGKCTEGWDDLIKKLEKVRL ([dK][dE][dA][dC]G[dK][dC][dT][dE]G[dW][dD][dD][dL][dI][dK][dK][dL][dE][dK][dV][dR][dL]; disulfide 4-7) [Compound 4]
potency of retro-inverso peptides relative to their parent compounds and to full-length CDNF protein [2]: comparable
stability in rat hepatocytes as compared to parent compound (rat hepatocytes): significantly improved stability
stability in human hepatocytes as compared to parent compound (human hepatocytes): significantly improved stability
ability to pass through the in vitro blood-brain barrier as compared to parent compound [3]: improved ability to pass

Molecule: KEACGKCTE ([dK][dE][dA][dC]G[dK][dC][dT][dE]; disulfide 4-7) [Compound 16]
potency of retro-inverso peptides relative to their parent compounds and to full-length CDNF protein [2]: comparable

Molecule: C[C@H](O)[C@@H](N)C(=O)N[C@H](CCCCN)C(=O)N[C@H](CCC(=O)O)C(=O)N[C@H](C)C(=O)N[C@@H]1CSSC[C@H](C(=O)N[C@H](CCC(=O)O)C(=O)N[C@H](CCC(=O)O)C(=O)NCC(=O)O)NC(=O)[C@@H](CCCNC(=N)N)NC(=O)[C@@H](C)NC1=O [Compound 6, TKEACARCEEG]
potency of retro-inverso peptides relative to their parent compounds and to full-length CDNF protein [2]: comparable
AUC(0-inf) [4]: 15.5 µg·h/mL
MRT [4]: 29.4 min
Vd [4]: 0.16 L/kg
half-life [4]: 24.5 min
clearance [4]: 0.341 L/h/kg
pKd [1]: 5.41
stability in rat hepatocytes as compared to parent compound (rat hepatocytes): significantly improved stability
stability in human hepatocytes as compared to parent compound (human hepatocytes): significantly improved stability
ability to pass through the in vitro blood-brain barrier as compared to parent compound [3]: improved ability to pass

Molecule: TKEACAGRCEEG ([dT][dK][dE][dA][dC][dA]G[dR][dC][dE][dE]G; disulfide 5-9) [Compound 10]
potency of retro-inverso peptides relative to their parent compounds and to full-length CDNF protein [2]: comparable

Molecule: C[C@H](O)[C@@H](NC(=O)[C@H]1CSSC[C@@H](NC(=O)[C@@H](C)NC(=O)[C@@H](CCC(=O)O)NC(=O)[C@@H](CCCCN)NC(=O)[C@H](N)CO)C(=O)NCC(=O)NCC(=O)N[C@H](CCCCN)C(=O)N1)C(=O)N[C@H](CCC(=O)O)C(=O)NCC(=O)O [Compound 12, SKEACGGKCTEG] (H-[dS][dK][dE][dA][dC]GG[dK][dC][dT][dE]G-OH; disulfide 5-9; N-terminus and C-terminus assumed)
AUC(0-inf) [4]: 4.31 µg·h/mL
MRT [4]: 22.9 min
Vd [4]: 0.45 L/kg
half-life [4]: 19.7 min
clearance [4]: 1.17 L/h/kg
ability to pass through the in vitro blood-brain barrier as compared to parent compound [3]: improved ability to pass
